Measurements taken from paper PMC10138554, “Insights into the Microbicidal, Antibiofilm, Antioxidant and Toxicity Profile of New O-Aryl-Carbamoyl-Oxymino-Fluorene Derivatives” (International Journal of Molecular Sciences, 2023).
In brackets after ≈: the same amount, converted by molar mass.

What was measured:
E. coli ATCC 25922 = experiment: Flow cytometry (FCM) membrane depolarization, DiBAC4(3); type: cell-based, Escherichia coli; settings: DiBAC4, 18–24 h
Experimental: The investigation of potential mechanisms of antimicrobial action by flow cytometry (FCM) was performed on microbial cultures obtained after 18–24 h of microbial cell incubation in the presence of subinhibitory concentrations of the analyzed compounds. Thus, microbial suspensions with a density of approximately 10^6 CFU/mL were prepared in sterile saline phosphate buffer from exponentially growing microbial cultures, obtained on a solid culture medium. Subinhibitory concentrations of the compounds were prepared in Muller–Hinton liquid culture medium and inoculated with an equal amount of microbial suspension and incubated for 18–24 h at 37 °C.
Microbial suspensions inoculated in a liquid medium were used as growth control. After incubation, the DiBAC4 fluorochrome solution [bis-(1,3-dibutylbarbituric acid) trimethinoxonol] Invitrogen/Life Technologies, Carlsbad, was added (0.5 μg/mL).
Fluorescence intensity (FI) was measured with an Accuri C6 plus flow cytometer in the FITC fluorescence channel. Growth control was used to locate the microbial cell population for fluorescence measurements. DiBAC4 dye was used to detect changes in the microbial membrane potential. […] A twofold increased fluorescence intensity (median fluorescence intensity = MFI) was considered to correspond to the depolarized microbial cells. For each subinhibitory concentration, a coloring index (CI) was calculated which represents the ratio of fluorescence intensity (FI) of treated versus untreated cells.

[1] = Toxicity on the Artemia franciscana Kellog crustacean species (lethality of nauplii); type: in vivo; settings: Artemia franciscana Kellog (brine shrimp nauplii), in vivo, other: nauplii placed in contact with the test suspensions, four-parameter logistic model
Experimental: The oocysts (Great Salt Lake, USA) provided by S.K. Trading were grown on artificial seawater medium (Coral Marine, Grotech), dissolved in distilled water with a few minutes of sonication, at 30 g/L concentration. The test was carried out in a 24-well plate, using three replicates. Because of their low solubility, the compounds 1a–d were suspended in the culture medium using sodium alginate (0.045%) (also used a negative control), the testing being carried out at the solubility limit. The concentrations 100, 50, 25, 12.5 and 6.2 μg/mL used for each substance were obtained by successive dilutions starting from the initial suspension. Between 10 and 15 nauplii per well were collected and placed in contact with the test suspensions (1.5 mL/well). All nauplii, dead or alive, were counted and recorded within 24 h of being placed in contact with the tested suspensions. The non-linear modeling of the concentration-lethality relationship was achieved through a four-parameter logistics model (4PL), implemented in several robust variants for estimating parameters in the R package “dr4pl” [78].

[2] = In vitro cytotoxicity assay, IncuCyte S3 live-cell analysis; type: cell-based; settings: human, 72-h period
Experimental: The cytotoxicity of the investigated compounds was tested using the IncuCyte Basic Analysiskit, allowing to calculate the IC50, against three tumoral cell lines, i.e., HeLa (cervical cancer cells), HT29 (colon adenocarcinoma) and MG63 (osteosarcoma). The selected metric of the concentration-response module was set on phase and confluence (%).
In our experiments, we used colorectal adenocarcinoma HT29 (ATCC HTB-38), cervical adenocarcinoma cells HeLa (ATCC CRM-CCL2), and osteosarcoma MG63 (ATCC CRL-1427). The cells were maintained in Dulbeco’s Modified Medium (DMEM): F12 (Thermo Fisher Scientific, Waltham, MA, USA) supplemented with 10% fetal bovine serum (FBS, Thermo Fisher Scientific, Waltham, MA, USA). For the in vitro evaluation of their cytotoxicity, the new derivatives were solubilized in DMSO at a concentration of 10 mg/mL and filtered with 0.22 µm Millex-GV Filter (Merck, Darmstadt, Germany). For cytotoxicity kinetics, the IncuCyte® S3 Live-Cell Analysis System (Sartorius, AG, Goettingen, Germany) was used. Briefly, 2 × 10^4 cells seeded in 96 well plates were treated with the new derivatives in a concentration ranging between 500 μg/mL and 3.9 μg/mL. The plates were placed in the IncuCyte® S3 Live-Cell Analysis System, and five images per well were taken every six h over a 72-h period and then processed, according to kit recommendations.

[3] = subinhibitory concentration tested 1.25 mg/mL
[4] = HT29 cells (colorectal adenocarcinoma), HT29, phase confluence (%)
[5] = HeLa cells (cervical adenocarcinoma), phase confluence (%)
[6] = MG63 cells (osteosarcoma), MG63, phase confluence (%)

O=C(Nc1ccc(Cl)c(Cl)c1)ON=C1c2ccccc2-c2ccccc21 [Compound 1d, 9-((3,4-dichloro-phenyl)carbamoyloxymino)fluoren]
staining index value (SI) (E. coli ATCC 25922; [3]): 173.3 | LC50 at 24 h [1]: 14.6 mg/L (≈ 38.2 µM) | IC50 at 72 h [2, 4]: 8.17 ± 2.98 mg/L (≈ 21.3 µM) | IC50 at 72 h [2, 5]: 7.59 ± 3.64 mg/L (≈ 19.8 µM) | IC50 at 72 h [2, 6]: 26.3 ± 0.92 mg/L (≈ 68.6 µM)

O=C(Nc1ccccc1)ON=C1c2ccccc2-c2ccccc21 [Compound 1a, 9-(phenylcarbamoyloxymino)fluoren]
staining index value (SI) (E. coli ATCC 25922; [3]): 80.7 | IC50 at 72 h [2, 4]: 11 ± 0.75 mg/L (≈ 35 µM) | IC50 at 72 h [2, 5]: 7.52 ± 1.39 mg/L (≈ 23.9 µM) | IC50 at 72 h [2, 6]: 31.5 mg/L (≈ 100 µM)

O=C(Nc1cccc(Cl)c1)ON=C1c2ccccc2-c2ccccc21 [Compound 1c, 9-((3-chloro-phenyl)carbamoyloxymino)fluoren]
staining index value (SI) (E. coli ATCC 25922; [3]): 3.2 | IC50 at 72 h [2, 4]: 10.8 ± 1.36 mg/L (≈ 31 µM) | IC50 at 72 h [2, 5]: 8.9 ± 2.56 mg/L (≈ 25.5 µM) | IC50 at 72 h [2, 6]: 22.8 ± 0.78 mg/L (≈ 65.4 µM)

Cc1cccc(NC(=O)ON=C2c3ccccc3-c3ccccc32)c1 [Compound 1b, 9-((3-methyl-phenyl)carbamoyloximino)fluoren]
staining index value (SI) (E. coli ATCC 25922; subinhibitory concentration tested 2.5 mg/mL): 10.2 | IC50 at 72 h [2, 4]: 6.33 ± 3.02 mg/L (≈ 19.3 µM) | IC50 at 72 h [2, 5]: 8.5 ± 2.26 mg/L (≈ 25.9 µM) | IC50 at 72 h [2, 6]: 22 ± 2.48 mg/L (≈ 67 µM)
